Assay results reported in patent US10105377B2, “Compounds and nail polish” (Anacor Pharmaceuticals, Inc., priority 2014, dated 2018).

Columns and labels:
[1] = ex vivo human cadaver fingernails; relative to ciclopirox; cited from earlier work
[2] = Tavaborole penetration of fingernails with one, two, or four layers of nail polish (vertical diffusion cells); assay type: in vitro ADME, human; conditions: from Tavaborole Topical Solution, 5%; through up to four layers of nail polish
Description: Female human ex vivo, cadaver fingernails from eight donors were cleaned of any underlying tissue, rinsed with water to remove any additional materials from the surface and then characterized for width, length, thickness, and weight. Four different treatment groups were used to evaluate different nail polish application practices. In the first treatment group, one nail from each of seven donors (randomized to treatment group) was painted according to the first nail polish application practice. In the second treatment group, a second nail from each of seven donors (randomized to treatment group) was painted according to the second nail polish application practice. In the third treatment group, a third nail from each of seven donors (randomized to treatment group) was painted according to the third nail polish application practice. In the fourth treatment group, a fourth nail from each of seven donors (randomized to treatment group) was painted according to the fourth nail polish application practice. […]
Vertical diffusion cells were filled with pre-warmed receiving medium of phosphate buffered saline (pH 7.4) and a small stir bar, and were allowed to equilibrate to 32±1.0° C. The cell volumes were determined prior to initiating the study. […] Prior to dosing, each cell was evaluated for leaks. […]

OB1OCc2cc(F)ccc21 [tavaborole, 5-fluoro-1,3-dihydro-1-hydroxy-2,1-benzoxaborole]
quantity through the nail compared with ciclopirox [1]: 250 fold | penetration through layers of nail polish (in words) [2]: able to penetrate
